This note sets out measurements from patent US11130960B2, “Methods for conferring or enhancing herbicide resistance on plants and/or alga with protoporphyrinogen oxidase variants” (FARM HANNONG CO., LTD., priority 2014, dated 2021).

SMILES strings stand for the structures.

The test system of this assay is CyPPO2. Description: Growth inhibition of transformed PPO-deficient E. coli BT3(ΔPPO) on LB agar medium. In kind it is cell-based, Oscillatoria nigro-viridis PCC 7112. The following applies: 37° C., 16~20 hours. The source says: To test herbicide resistance of CyPPO2, CyPPO4, CyPPO8 and CyPPO12 isolated in Example 1, PPO-deficient BT3 E. coli [hereinafter, referred to as BT3(ΔPPO)] was transformed with CyPPO2, CyPPO4, CyPPO8 or CyPPO12 gene, respectively and then cultured in the presence of herbicides to examine growth inhibition of the transformed E. coli. As a negative control, Arabidopsis thaliana-derived wild-type PPO (wild-type AtPPO1) was used, and wild-type AtPPO1 has sensitivity to PPO-based herbicides and its sequence information is available in GeneBank accession no. AX084732 (a nucleotide sequence of the gene is represented by SEQ ID NO: 10, and an amino acid sequence thereof is represented by SEQ ID NO: 9). As a positive control, Mutant AtPPO1 was used, in which amino acid replacements of Y426M (replacement of tyrosine by methionine at position 426) and S305L (replacement of serine by leucine at position 305) occur in the amino acid sequence of the wild-type AtPPO1 (an amino acid sequence is represented by SEQ ID NO: 11) (Li X, Volrath S L., N D B. G., Chilcott C E, Johnson M A, Ward E R, Law M D (2003) Development of protoporphyrinogen oxidase as an efficient selection marker for Agrobacterium tumefaciens-mediated transformation of maize. Plant physiology 133:736-747).
BT3(ΔPPO) strain was provided by Hokkaido University (Japan) and it is an E. coli strain which is deficient in hemG-type PPO and has Kanamycin resistance (Watanabe et al., (2001) Dual targeting of spinach protoporphyrinogen oxidase II to mitochondria and chloroplasts by alternative use of two in-frame […] codons. JBC 2047420481).
HVE-50 autoclave from Hirayama, HS2100A electronic scale from Hansung Instrument, CB-30V clean bench from Jeio Tech, JSI-200CL incubator from JSR, 1210 type UV-visible spectrophotometer from Thermo Fisher Scientific, MQ-200 photometer from Apogee, and Bio-Rad MyCycler as PCR machine were used. The autoclave was used under conditions of 121° C. and 15 minutes, and the incubator was used at 37° C. with lighting of 160˜200 μmol m^−2 s^−1 for a culture time of 14˜20 hours. LB medium (10 g/L of Bacto-Tryptone, 5 g/L of Yeast extract, 10 g/L of sodium chloride, 15 g/L of Bacto agar) and an antibiotic Chloramphenicol (Duchefa) were used.
To clone each of the CyPPO2, CyPPO4, CyPPO8 and CyPPO12 genes isolated and amplified in Example 1 into pACBB (its structure is shown in FIG. 2), 10 μl of a solution containing 4 μl of each PPO gene, […], 1 μl of 10× buffer A, 1 μl of 10× buffer B, 1 μl of ligase (RBC, 3 unit/μl) was prepared and allowed to react at 22° C. for 30 minutes. The reaction solution was added to 100 μl of DH5 alpha competent cells, and allowed to react on ice for 20 minutes and then left at 42° C. for 40 seconds. Thereafter, the cells were left on ice for 2 minutes, and then 1 ml of LB broth was added thereto, followed by incubation with shaking at 37° C. for 1 hour. The strains having each gene insert in the culture medium were harvested, and then cultured on LB agar medium containing chloramphenicol.
For seed culture of E. coli transformed with respective genes, single colonies thereof were cultured in 3 ml of LB broth containing chloramphenicol overnight, and each 100 μl thereof was sub-cultured in 3 ml of fresh LB broth until absorbance (OD600) reached 0.5˜1. They were diluted with LB broth to absorbance (OD600) of 0.5. 10-fold dilution of this diluted solution was performed with LB broth five times. Next, 10 μl of the diluted solution of the transformed E. coli culture was dropped on LB agar medium (petri dish) containing chloramphenicol and a variety of herbicide stocks at different concentrations (0˜400 μM). The LB agar plates were incubated at 37° C. At 16˜20 hours after culture, growth inhibition was examined with the naked eye. Further, growth inhibition of the strains cultured in a medium containing Tiafenacil was examined under light (lighting of 169 μmol m^−2s^−1) and dark conditions.
Take `CC(C)=C1OC(=O)N(c2cc(OC3CCCC3)c(Cl)cc2F)C1=O` [Pentoxazone]: the “concentration at which growth inhibition was hardly observed” value amounted to 400 µM.

As for `O=C(O)c1cc(Oc2ccc(C(F)(F)F)cc2Cl)ccc1[N+](=O)[O-]` [Acifluorfen], the “concentration at which growth inhibition was hardly observed” value is 400 µM. For the compound `CC(C)Oc1cc(-n2nc(C(C)(C)C)oc2=O)c(Cl)cc1Cl` [Oxadiazon], the “concentration at which growth inhibition was hardly observed” value came out at 400 µM. Regarding `C#CCN1C(=O)COc2cc(F)c(N3C(=O)C4=C(CCCC4)C3=O)cc21` [Flumioxazin], the “concentration at which growth inhibition was hardly observed” value was 25 µM. Next, `CS(=O)(=O)NC(=O)c1cc(Oc2ccc(C(F)(F)F)cc2Cl)ccc1[N+](=O)[O-]` [Fomesafen]: 400 µM; `CC(C)N(C)S(=O)(=O)NC(=O)c1cc(-n2c(=O)cc(C(F)(F)F)n(C)c2=O)c(F)cc1Cl` [Saflufenacil]: 25 µM.

Take `C#CCN(C)c1c(C#N)cnn1-c1nn2c(c1Cl)CCCC2` [Pyraclonil]: the “concentration at which growth inhibition was hardly observed” value turned out to be 400 µM. Next, `Cc1nn(-c2cc(NS(C)(=O)=O)c(Cl)cc2Cl)c(=O)n1C(F)F` [Sulfentrazone]: 400 µM; `COC(=O)CSc1cc(/N=c2\sc(=O)n3n2CCCC3)c(F)cc1Cl` [Fluthiacet-methyl]: 400 µM; `CCOc1cc(Oc2ccc(C(F)(F)F)cc2Cl)ccc1[N+](=O)[O-]` [Oxyfluorfen]: 400 µM. For `CCOC(=O)COc1cc(-c2nn(C)c(OC(F)F)c2Cl)c(F)cc1Cl` [Pyraflufen-ethyl], the “concentration at which growth inhibition was hardly observed” value turned out to be 400 µM. Next, `COC(=O)CCNC(=O)C(C)Sc1cc(-n2c(=O)cc(C(F)(F)F)n(C)c2=O)c(F)cc1Cl` (stereo not shown) [Tiafenacil]: 25 µM. Turning to `C=CCOC(=O)C(C)(C)OC(=O)c1cc(-n2c(=O)cc(C(F)(F)F)n(C)c2=O)ccc1Cl` [Butafenacil], the “concentration at which growth inhibition was hardly observed” value worked out at 25 µM.
